# According to US20220370406A1, “METHOD OF TREATING STIMULANT USE DISORDER USING A COMBINATION OF TOPIRAMATE AND PHENTERMINE” (University of Kentucky Research Foundation, priority 2019, published 2022):
# Tested on: participants with cocaine use disorder
# Assay: Medical safety session: subjective effects questionnaires after intranasal cocaine
# Assay type: in vivo, human
# Description: Participants completed one, single-blind medical safety session to ensure they could tolerate intranasal cocaine. Intranasal cocaine doses (i.e., 0 [placebo], 10, 20, 40 and 80 mg) were administered in ascending order. Placebo (i.e., 0 mg) was administered at 0900 hours. The subjective-effect questionnaires and cardiovascular measures described below were completed 30 minutes before placebo administration (i.e., 0830 hours), immediately following and at 15-minute intervals for 45 minutes. Subsequent cocaine administrations were separated by 45 minutes.
# [1] = Cocaine 10 mg, Topiramate (0 mg/day) group
# [2] = Cocaine 10 mg, Topiramate (50 mg/day) group
# [3] = Cocaine 10 mg, Topiramate (100 mg/day) group
# [4] = Cocaine 20 mg, Topiramate (0 mg/day) group
# [5] = Cocaine 20 mg, Topiramate (50 mg/day) group
# [6] = Cocaine 20 mg, Topiramate (100 mg/day) group
structure (smiles),measurement,setting,value
"COC(=O)[C@H]1[C@@H](OC(=O)c2ccccc2)C[C@@H]2CC[C@H]1N2C [Cocaine, cocaine]","Adjective Rating Scales Sedative, mean peak effect",[1],2.0
same,"Adjective Rating Scales Stimulant, mean peak effect",[1],6.1
same,"Drug-Effect Questionnaire Active-Alert-Energetic, mean peak effect",[1],17.0
same,"Drug-Effect Questionnaire Any Effect, mean peak effect",[1],21.5
same,"Drug-Effect Questionnaire Bad Effects, mean peak effect",[1],4.4
same,"Drug-Effect Questionnaire Euphoric, mean peak effect",[1],10.1
same,"Drug-Effect Questionnaire Good Effects, mean peak effect",[1],21.5
same,"Drug-Effect Questionnaire High, mean peak effect",[1],17.3
same,"Drug-Effect Questionnaire Irregular Heart Beat, mean peak effect",[1],7.0
same,"Drug-Effect Questionnaire Like Drug, mean peak effect",[1],25.2
same,"Drug-Effect Questionnaire Nausea-Queasy-Sick, mean peak effect",[1],3.3
same,"Drug-Effect Questionnaire Nervous-Anxious, mean peak effect",[1],5.1
same,"Drug-Effect Questionnaire Performance Impaired, mean peak effect",[1],4.9
same,"Drug-Effect Questionnaire Performance Improved, mean peak effect",[1],10.7
same,"Drug-Effect Questionnaire Restless, mean peak effect",[1],7.9
same,"Drug-Effect Questionnaire Rush, mean peak effect",[1],15.5
same,"Drug-Effect Questionnaire Shaky-Jittery, mean peak effect",[1],3.9
same,"Drug-Effect Questionnaire Sluggish-Fatigued-Lazy, mean peak effect",[1],8.1
same,"Drug-Effect Questionnaire Stimulated, mean peak effect",[1],13.8
same,"Drug-Effect Questionnaire Talkative-Friendly, mean peak effect",[1],17.0
same,"Drug-Effect Questionnaire Willing to Pay For, mean peak effect",[1],20.6
same,"Drug-Effect Questionnaire Willing to Take Again, mean peak effect",[1],26.3
same,"Adjective Rating Scales Sedative, mean peak effect",[2],3.9
same,"Adjective Rating Scales Stimulant, mean peak effect",[2],8.7
same,"Drug-Effect Questionnaire Active-Alert-Energetic, mean peak effect",[2],11.2
same,"Drug-Effect Questionnaire Any Effect, mean peak effect",[2],7.0
same,"Drug-Effect Questionnaire Bad Effects, mean peak effect",[2],1.2
same,"Drug-Effect Questionnaire Euphoric, mean peak effect",[2],3.4
same,"Drug-Effect Questionnaire Good Effects, mean peak effect",[2],6.4
same,"Drug-Effect Questionnaire High, mean peak effect",[2],6.1
same,"Drug-Effect Questionnaire Irregular Heart Beat, mean peak effect",[2],0.6
same,"Drug-Effect Questionnaire Like Drug, mean peak effect",[2],9.2
same,"Drug-Effect Questionnaire Nausea-Queasy-Sick, mean peak effect",[2],1.2
same,"Drug-Effect Questionnaire Nervous-Anxious, mean peak effect",[2],0.3
same,"Drug-Effect Questionnaire Performance Impaired, mean peak effect",[2],0.9
same,"Drug-Effect Questionnaire Performance Improved, mean peak effect",[2],3.3
same,"Drug-Effect Questionnaire Restless, mean peak effect",[2],1.2
same,"Drug-Effect Questionnaire Rush, mean peak effect",[2],5.9
same,"Drug-Effect Questionnaire Shaky-Jittery, mean peak effect",[2],1.4
same,"Drug-Effect Questionnaire Sluggish-Fatigued-Lazy, mean peak effect",[2],5.4
same,"Drug-Effect Questionnaire Stimulated, mean peak effect",[2],11.9
same,"Drug-Effect Questionnaire Talkative-Friendly, mean peak effect",[2],4.7
same,"Drug-Effect Questionnaire Willing to Pay For, mean peak effect",[2],5.4
same,"Drug-Effect Questionnaire Willing to Take Again, mean peak effect",[2],12.0
same,"Adjective Rating Scales Sedative, mean peak effect",[3],3.1
same,"Adjective Rating Scales Stimulant, mean peak effect",[3],10.6
same,"Drug-Effect Questionnaire Active-Alert-Energetic, mean peak effect",[3],6.4
same,"Drug-Effect Questionnaire Any Effect, mean peak effect",[3],10.7
same,"Drug-Effect Questionnaire Bad Effects, mean peak effect",[3],0.2
same,"Drug-Effect Questionnaire Euphoric, mean peak effect",[3],5.6
same,"Drug-Effect Questionnaire Good Effects, mean peak effect",[3],14.5
same,"Drug-Effect Questionnaire High, mean peak effect",[3],7.4
same,"Drug-Effect Questionnaire Irregular Heart Beat, mean peak effect",[3],2.8
same,"Drug-Effect Questionnaire Like Drug, mean peak effect",[3],10.1
same,"Drug-Effect Questionnaire Nausea-Queasy-Sick, mean peak effect",[3],6.8
same,"Drug-Effect Questionnaire Nervous-Anxious, mean peak effect",[3],0.2
same,"Drug-Effect Questionnaire Performance Impaired, mean peak effect",[3],0.2
same,"Drug-Effect Questionnaire Performance Improved, mean peak effect",[3],2.1
same,"Drug-Effect Questionnaire Restless, mean peak effect",[3],0.7
same,"Drug-Effect Questionnaire Rush, mean peak effect",[3],6.9
same,"Drug-Effect Questionnaire Shaky-Jittery, mean peak effect",[3],0.3
same,"Drug-Effect Questionnaire Sluggish-Fatigued-Lazy, mean peak effect",[3],0.5
same,"Drug-Effect Questionnaire Stimulated, mean peak effect",[3],7.7
same,"Drug-Effect Questionnaire Talkative-Friendly, mean peak effect",[3],7.8
same,"Drug-Effect Questionnaire Willing to Pay For, mean peak effect",[3],8.6
same,"Drug-Effect Questionnaire Willing to Take Again, mean peak effect",[3],12.6
same,"Adjective Rating Scales Sedative, mean peak effect",[4],4.6
same,"Adjective Rating Scales Stimulant, mean peak effect",[4],8.4
same,"Drug-Effect Questionnaire Active-Alert-Energetic, mean peak effect",[4],23.5
same,"Drug-Effect Questionnaire Any Effect, mean peak effect",[4],28.6
same,"Drug-Effect Questionnaire Bad Effects, mean peak effect",[4],4.5
same,"Drug-Effect Questionnaire Euphoric, mean peak effect",[4],11.5
same,"Drug-Effect Questionnaire Good Effects, mean peak effect",[4],26.1
same,"Drug-Effect Questionnaire High, mean peak effect",[4],20.0
same,"Drug-Effect Questionnaire Irregular Heart Beat, mean peak effect",[4],8.8
same,"Drug-Effect Questionnaire Like Drug, mean peak effect",[4],27.8
same,"Drug-Effect Questionnaire Nausea-Queasy-Sick, mean peak effect",[4],2.9
same,"Drug-Effect Questionnaire Nervous-Anxious, mean peak effect",[4],8.5
same,"Drug-Effect Questionnaire Performance Impaired, mean peak effect",[4],10.4
same,"Drug-Effect Questionnaire Performance Improved, mean peak effect",[4],12.0
same,"Drug-Effect Questionnaire Restless, mean peak effect",[4],8.9
same,"Drug-Effect Questionnaire Rush, mean peak effect",[4],19.4
same,"Drug-Effect Questionnaire Shaky-Jittery, mean peak effect",[4],8.8
same,"Drug-Effect Questionnaire Sluggish-Fatigued-Lazy, mean peak effect",[4],6.8
same,"Drug-Effect Questionnaire Stimulated, mean peak effect",[4],18.7
same,"Drug-Effect Questionnaire Talkative-Friendly, mean peak effect",[4],18.6
same,"Drug-Effect Questionnaire Willing to Pay For, mean peak effect",[4],24.9
same,"Drug-Effect Questionnaire Willing to Take Again, mean peak effect",[4],32.9
same,"Adjective Rating Scales Sedative, mean peak effect",[5],2.8
same,"Adjective Rating Scales Stimulant, mean peak effect",[5],8.6
same,"Drug-Effect Questionnaire Active-Alert-Energetic, mean peak effect",[5],12.8
same,"Drug-Effect Questionnaire Any Effect, mean peak effect",[5],9.9
same,"Drug-Effect Questionnaire Bad Effects, mean peak effect",[5],0.3
same,"Drug-Effect Questionnaire Euphoric, mean peak effect",[5],12.4
same,"Drug-Effect Questionnaire Good Effects, mean peak effect",[5],11.2
same,"Drug-Effect Questionnaire High, mean peak effect",[5],13.1
same,"Drug-Effect Questionnaire Irregular Heart Beat, mean peak effect",[5],0.6
same,"Drug-Effect Questionnaire Like Drug, mean peak effect",[5],14.6
same,"Drug-Effect Questionnaire Nausea-Queasy-Sick, mean peak effect",[5],2.2
same,"Drug-Effect Questionnaire Nervous-Anxious, mean peak effect",[5],0.0
same,"Drug-Effect Questionnaire Performance Impaired, mean peak effect",[5],2.4
same,"Drug-Effect Questionnaire Performance Improved, mean peak effect",[5],5.4
same,"Drug-Effect Questionnaire Restless, mean peak effect",[5],0.7
same,"Drug-Effect Questionnaire Rush, mean peak effect",[5],14.1
same,"Drug-Effect Questionnaire Shaky-Jittery, mean peak effect",[5],1.1
same,"Drug-Effect Questionnaire Sluggish-Fatigued-Lazy, mean peak effect",[5],0.8
same,"Drug-Effect Questionnaire Stimulated, mean peak effect",[5],15.6
same,"Drug-Effect Questionnaire Talkative-Friendly, mean peak effect",[5],10.2
same,"Drug-Effect Questionnaire Willing to Pay For, mean peak effect",[5],7.6
same,"Drug-Effect Questionnaire Willing to Take Again, mean peak effect",[5],10.2
same,"Adjective Rating Scales Sedative, mean peak effect",[6],3.7
same,"Adjective Rating Scales Stimulant, mean peak effect",[6],11.1
same,"Drug-Effect Questionnaire Active-Alert-Energetic, mean peak effect",[6],11.0
same,"Drug-Effect Questionnaire Any Effect, mean peak effect",[6],11.7
same,"Drug-Effect Questionnaire Bad Effects, mean peak effect",[6],2.2
same,"Drug-Effect Questionnaire Euphoric, mean peak effect",[6],5.7
same,"Drug-Effect Questionnaire Good Effects, mean peak effect",[6],10.2
same,"Drug-Effect Questionnaire High, mean peak effect",[6],12.8
same,"Drug-Effect Questionnaire Irregular Heart Beat, mean peak effect",[6],3.2
same,"Drug-Effect Questionnaire Like Drug, mean peak effect",[6],14.9
same,"Drug-Effect Questionnaire Nausea-Queasy-Sick, mean peak effect",[6],10.6
same,"Drug-Effect Questionnaire Nervous-Anxious, mean peak effect",[6],6.6
same,"Drug-Effect Questionnaire Performance Impaired, mean peak effect",[6],5.5
same,"Drug-Effect Questionnaire Performance Improved, mean peak effect",[6],4.0
same,"Drug-Effect Questionnaire Restless, mean peak effect",[6],0.2
same,"Drug-Effect Questionnaire Rush, mean peak effect",[6],12.4
same,"Drug-Effect Questionnaire Shaky-Jittery, mean peak effect",[6],3.1
same,"Drug-Effect Questionnaire Sluggish-Fatigued-Lazy, mean peak effect",[6],1.1
same,"Drug-Effect Questionnaire Stimulated, mean peak effect",[6],10.5
same,"Drug-Effect Questionnaire Talkative-Friendly, mean peak effect",[6],11.2
same,"Drug-Effect Questionnaire Willing to Pay For, mean peak effect",[6],11.7
same,"Drug-Effect Questionnaire Willing to Take Again, mean peak effect",[6],11.6
